In assay [1] the test system is WiDr human colon cancer cells. The experiment in a line: Radiation dose response, colony formation after Ad infection and 5-FC. It counts as cell-based. The settings on record: No Viral Infection, 20 mg/ml 5-FC. As for the experimental part:
WiDr human colon cancer cells were plated at a density of 5×10^5 cells/well in 6-well tissue culture plates 24 hours prior to adenoviral infection. WiDr cells were then infected with AdCMVCD at a multiplicity of infection (MOI) of 1 or 10 plaque forming units (pfu) per cell in 0.5 ml Opti-Mem (Gibco-BRL) for 1.5 hours. A control virus that encodes the reporter gene E. coli LacZ which produces β-galactosidase (AdCMVLacZ) was provided by Dr. De-Chu Tang. Viral infection was stopped by the addition of 3 ml of complete growth media and the cells were returned to the incubator overnight. The following day, media was replaced with media supplemented with the appropriate concentration of 5-FC or no drug. The cells were then incubated in 5-FC for 3 days. The cells were then mock irradiated or irradiated on ice using a Picker ^60Co therapy unit (Cleveland, Ohio) at a dose rate of 80 cGy/min. The cells were then plated for colony formation. Colonies formed in 14 days and were fixed in ethanol and stained with 1% crystal violet.
SK-ChA-1 cells were infected with 10 MOI of AdCMVCD, or AdCMVLacZ, treated with 0, 10 or 20 μg/ml 5-FC for 72 hours, then irradiated with 0 or 8 Gy (80 cGy/min). The cells were irradiated on ice, then trypsinized, counted and plated in triplicate in 25 cm^2 tissue culture dishes (Costar) in media free of 5-FC. The plates were fixed and stained 14 days later. For both WiDr and SK-ChA-1 cells, colonies containing greater than 50 cells were counted. Percent survival was calculated as the average number of colonies counted divided by the number of cells plated times plating efficiency (PE); where PE was the fraction of colonies counted divided by cells plated without radiation. The dose response curve was fitted using the Fit v 2.4 software (provided by Dr. N. Albright, University of California at San Francisco, San Francisco, Calif.).

For assay [2], the system named is intracranial U251MG gliomas. In words: Survival, intracranial glioma, intratumoral Ad and systemic 5-FC. The class given is in vivo, SCID mice. The settings on record: no virus/5-FC. As for the experimental part:
U87MG and D54MG cells (5×10^5) were stereotactically injected into the right frontal cortex of SCID mice. Tumors were established for 5 days before intratumoral injection of AdCMVCD (10^8 or 10^9 pfu/mouse). Mice were then treated IP with 5-FC (500 mg/kg bid) on days 2-9 post infection and monitored for survival. Kaplan-Meier survival curves and median and 20% survival values were calculated by standard methods.
Additional experiments were performed on intracranial tumors derived from all three glioma models. […] Similar results were obtained with SCID mice bearing intracranial U87MG gliomas (AdE1ACD/5-FC 84 days, AdE1ACD/saline 49 days, no virus/5-FC 57 days, p<0.01; Table II and Table 12).

In assay [3] the test system is Neuro-2a murine neuroblastoma cells. The experiment in a line: HSV replication in vitro, plaque titration on Vero cells. It counts as cell-based. The settings on record: 50 μM 5-FU in growth medium; first evident at 48 h post-infection. As for the experimental part: M012 replication was compared to R3659 replication over time in murine Neuro-2a tumor cells at both high (5.0) and low (0.1) MOI. Infected cells were grown in either growth medium alone or growth medium containing 5-FC (500 μM) or 5-FU (50 μM) by determining viral titers at 12, 24, 48, 72, and 96 h post-infection in the presence or absence of 500 μM 5-FC or 50 μM 5-FU. Virus recovery at the different time points was determined by titering on Vero cells. Experiments were performed in duplicate. Inhibition was most significant at high MOI, with P=0.002.
To establish replication competence of M012 in murine tumor cell lines in vitro, Neuro-2a murine neuroblastoma cells were infected with either the parent Dg134.5 HSV, R3659, or M012 using a low (0.1) or high (5.0) MOI. To determine if high concentrations of 5-FC might interfere with HSV replication, cells were incubated in the presence of either 500 μM 5-FC or 50 μM 5-FU, or media alone and infected cells were harvested at 12, 24, 48, 72, and 96 h post-infection. Total PFU recovered at each time point was determined by plaque titration on Vero cells (FIG. 9). At both MOI, M012 replication in DMEM alone was similar to its parent virus, R3659. […] The addition of 5-FC to the growth medium following infection inhibited M012 replication, but had no effect on R3659 replication at either MOI. […]

SMILES strings stand for the structures.

As to `Nc1nc(=O)[nH]cc1F` [5-FC, 5-fluorocytosine], in assay [1], the “Linear Quadratic Parameters a” value was 0, the “Linear Quadratic Parameters al” value is given as 0, the “Linear Quadratic Parameters b” value came out at 0.04 and the “Single Hit Multiple Target Do” value came to 1.760. Besides, the “Single Hit Multiple Target Dq” value in assay [1] was 3.679. The median survival in assay [2] was 23 days.

Regarding `O=c1[nH]cc(F)c(=O)[nH]1` [5-FU, 5-fluorouracil], the “reduction in replication of M012 or R3659” value in assay [3] is reported as 1.0-2.0 log.

(Values after patent US20070225245A1, “Viral vector driven mutant bacterial cytosine deaminase gene and uses thereof” (priority 1998, published 2007).)
